{
  "source": "PubChem BioAssay (NCI)",
  "assay_in_all_cases": "DTP human tumour cell line panel, 384-well format",
  "key": {"[1]": {"tested_on": "786-0 renal"}, "[2]": {"tested_on": "A498 renal"}, "[3]": {"tested_on": "A549 NSCLC"}, "[4]": {"tested_on": "ACHN renal"}, "[5]": {"tested_on": "BT-549 breast"}, "[6]": {"tested_on": "CAKI-1 renal"}, "[7]": {"tested_on": "DU-145 prostate"}, "[8]": {"tested_on": "HCT-116 colon"}, "[9]": {"tested_on": "HL-60(TB) leukemia"}, "[10]": {"tested_on": "HOP-92 NSCLC"}, "[11]": {"tested_on": "HS 578T breast"}, "[12]": {"tested_on": "HT29 colon"}, "[13]": {"tested_on": "K-562 leukemia"}, "[14]": {"tested_on": "KM12 colon"}, "[15]": {"tested_on": "M14 melanoma"}, "[16]": {"tested_on": "MCF7 breast"}, "[17]": {"tested_on": "MDA-MB-231 breast"}, "[18]": {"tested_on": "MDA-MB-435 melanoma"}, "[19]": {"tested_on": "MOLT-4 leukemia"}, "[20]": {"tested_on": "NCI-H460 NSCLC"}, "[21]": {"tested_on": "NCI-H522 lung"}, "[22]": {"tested_on": "OVCAR-3 ovarian"}, "[23]": {"tested_on": "OVCAR-4 ovarian"}, "[24]": {"tested_on": "OVCAR-5 ovarian"}, "[25]": {"tested_on": "PC-3 prostate"}, "[26]": {"tested_on": "SF-268 CNS"}, "[27]": {"tested_on": "SK-MEL-2 melanoma"}, "[28]": {"tested_on": "SK-MEL-28 melanoma"}, "[29]": {"tested_on": "SN12C renal"}, "[30]": {"tested_on": "SNB-19 CNS"}, "[31]": {"tested_on": "SNB-75 CNS"}, "[32]": {"tested_on": "SR leukemia"}, "[33]": {"tested_on": "SW-620 colon"}, "[34]": {"tested_on": "TK-10 renal"}, "[35]": {"tested_on": "UACC-62 melanoma"}},
  "note": "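GI50 marks 50% less growth. TGI marks complete inhibition of growth.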",
  "data": [
    {"smiles": "O=C(O)c1ccc2c(c1)CCCC(c1ccc(Cl)cc1Cl)=C2c1ccc(O[C@H]2CCN(CCCF)C2)cc1", "values": [
      {"measurement": "GI50", "setting": "[1]", "value": 12.7, "unit": "µM"},
      {"measurement": "TGI", "setting": "[1]", "value": 25.3, "unit": "µM"},
      {"measurement": "GI50", "setting": "[2]", "value": 6.94, "unit": "µM"},
      {"measurement": "TGI", "setting": "[2]", "value": 19.6, "unit": "µM"},
      {"measurement": "GI50", "setting": "[3]", "value": 9.67, "unit": "µM"},
      {"measurement": "GI50", "setting": "[4]", "value": 11.9, "unit": "µM"},
      {"measurement": "TGI", "setting": "[4]", "value": 24.3, "unit": "µM"},
      {"measurement": "GI50", "setting": "[5]", "value": 12, "unit": "µM"},
      {"measurement": "TGI", "setting": "[5]", "value": 24.3, "unit": "µM"},
      {"measurement": "GI50", "setting": "[6]", "value": 13, "unit": "µM"},
      {"measurement": "TGI", "setting": "[6]", "value": 25.7, "unit": "µM"},
      {"measurement": "GI50", "setting": "[7]", "value": 13.6, "unit": "µM"},
      {"measurement": "TGI", "setting": "[7]", "value": 26.6, "unit": "µM"},
      {"measurement": "GI50", "setting": "[8]", "value": 5.87, "unit": "µM"},
      {"measurement": "TGI", "setting": "[8]", "value": 18.8, "unit": "µM"},
      {"measurement": "GI50", "setting": "[9]", "value": 4.44, "unit": "µM"},
      {"measurement": "TGI", "setting": "[9]", "value": 16, "unit": "µM"},
      {"measurement": "GI50", "setting": "[10]", "value": 12.3, "unit": "µM"},
      {"measurement": "TGI", "setting": "[10]", "value": 24.8, "unit": "µM"},
      {"measurement": "GI50", "setting": "[11]", "value": 3.36, "unit": "µM"},
      {"measurement": "TGI", "setting": "[11]", "value": 18.1, "unit": "µM"},
      {"measurement": "GI50", "setting": "[12]", "value": 12.2, "unit": "µM"},
      {"measurement": "TGI", "setting": "[12]", "value": 24.7, "unit": "µM"},
      {"measurement": "GI50", "setting": "[13]", "value": 7.96, "unit": "µM"},
      {"measurement": "TGI", "setting": "[13]", "value": 20.7, "unit": "µM"},
      {"measurement": "GI50", "setting": "[14]", "value": 11.6, "unit": "µM"},
      {"measurement": "TGI", "setting": "[14]", "value": 24.2, "unit": "µM"},
      {"measurement": "GI50", "setting": "[15]", "value": 11.1, "unit": "µM"},
      {"measurement": "TGI", "setting": "[15]", "value": 23.1, "unit": "µM"},
      {"measurement": "GI50", "setting": "[16]", "value": "< 0.01", "unit": "µM"},
      {"measurement": "GI50", "setting": "[17]", "value": 14.8, "unit": "µM"},
      {"measurement": "TGI", "setting": "[17]", "value": 28.1, "unit": "µM"},
      {"measurement": "GI50", "setting": "[18]", "value": 12.2, "unit": "µM"},
      {"measurement": "TGI", "setting": "[18]", "value": 24.6, "unit": "µM"},
      {"measurement": "GI50", "setting": "[19]", "value": 3.61, "unit": "µM"},
      {"measurement": "TGI", "setting": "[19]", "value": 14.2, "unit": "µM"},
      {"measurement": "GI50", "setting": "[20]", "value": 10.3, "unit": "µM"},
      {"measurement": "TGI", "setting": "[20]", "value": 22.2, "unit": "µM"},
      {"measurement": "GI50", "setting": "[21]", "value": 10.3, "unit": "µM"},
      {"measurement": "TGI", "setting": "[21]", "value": 21.9, "unit": "µM"},
      {"measurement": "GI50", "setting": "[22]", "value": 10.1, "unit": "µM"},
      {"measurement": "TGI", "setting": "[22]", "value": 21.8, "unit": "µM"},
      {"measurement": "GI50", "setting": "[23]", "value": 11.3, "unit": "µM"},
      {"measurement": "TGI", "setting": "[23]", "value": 23.5, "unit": "µM"},
      {"measurement": "GI50", "setting": "[24]", "value": 15.2, "unit": "µM"},
      {"measurement": "TGI", "setting": "[24]", "value": 28.6, "unit": "µM"},
      {"measurement": "GI50", "setting": "[25]", "value": 10.2, "unit": "µM"},
      {"measurement": "TGI", "setting": "[25]", "value": 21.9, "unit": "µM"},
      {"measurement": "GI50", "setting": "[26]", "value": 14.8, "unit": "µM"},
      {"measurement": "TGI", "setting": "[26]", "value": 28.2, "unit": "µM"},
      {"measurement": "GI50", "setting": "[27]", "value": 17.4, "unit": "µM"},
      {"measurement": "TGI", "setting": "[27]", "value": 31.2, "unit": "µM"},
      {"measurement": "GI50", "setting": "[28]", "value": 11.7, "unit": "µM"},
      {"measurement": "TGI", "setting": "[28]", "value": 24, "unit": "µM"},
      {"measurement": "GI50", "setting": "[29]", "value": 14.4, "unit": "µM"},
      {"measurement": "TGI", "setting": "[29]", "value": 27.5, "unit": "µM"},
      {"measurement": "GI50", "setting": "[30]", "value": 13.1, "unit": "µM"},
      {"measurement": "TGI", "setting": "[30]", "value": 26, "unit": "µM"},
      {"measurement": "GI50", "setting": "[31]", "value": 12.9, "unit": "µM"},
      {"measurement": "TGI", "setting": "[31]", "value": 25.6, "unit": "µM"},
      {"measurement": "GI50", "setting": "[32]", "value": 2.92, "unit": "µM"},
      {"measurement": "TGI", "setting": "[32]", "value": 10.8, "unit": "µM"},
      {"measurement": "GI50", "setting": "[33]", "value": 15.7, "unit": "µM"},
      {"measurement": "TGI", "setting": "[33]", "value": 29.4, "unit": "µM"},
      {"measurement": "GI50", "setting": "[34]", "value": 12.5, "unit": "µM"},
      {"measurement": "TGI", "setting": "[34]", "value": 25.2, "unit": "µM"},
      {"measurement": "GI50", "setting": "[35]", "value": 13.5, "unit": "µM"},
      {"measurement": "TGI", "setting": "[35]", "value": 26.3, "unit": "µM"}
    ]}
  ]
}
